Measurements taken from US20080267981A1, “Compositions and Methods for Delivery of Antitumor Agents” (The Scripps Research Institute, priority 2004, published 2008).

Assays:
SW1990 cells = test: MTT cell proliferation assay on SW1990 cells; format: cell-based; conditions: Homo sapiens
Description: (§1) Cell proliferation assay. The cytotoxicity of scFv-drug or free drug was quantified by using the Vybrant MTT cell proliferation assay kit (Molecular Probes). Assays were performed using 48-well microtiter plates containing 2×10^4 SW1990 (HdFa) cells/well in 300 μL of phenol-free growth medium. Cells were allowed to attach to the wells for 12 hours. For determination of IC50, cells were incubated for 3 or 12 h at 37° C. with various concentrations of Pan10-drug conjugates, maleimide derivatives or free drugs. Then the incubation was continued in conjugate/drug-free medium and the MTT assay was performed at the end of the seventh day. Medium was replaced with 100 μL of fresh medium containing 1.2 mM MTT and the incubation continued for three more hours. The cells were then lysed by adding 100 μL of a 10 mM solution of HCL containing SDS (100 mg/mL). The cell lysis was allowed to proceed for a period of 8 hours at the end of which the plate was centrifuged at 3000 rpm for 3 min and the supernatant transferred in a 96-well plate and read at 570 nm. Each assay included a […]. All assays were performed at least twice. A set of 8 data points was obtained with various concentration of cytotoxicity agent. In order to obtain the IC50 values, data points from each set were fit to the sigmoidal dose-response curve defined by Equation 3 using Grafit5 (Leatherbarrow R. J. 2003. Grafit version 5.08, Erithieus Software Ltd, Staines, England).
y^a=min y+[(max y−min y)/(1+(IC50/x^b)^slope)] (Equation 3)
^bx=concentration of drug (drug-scF)
Data points which were outliers (typically 1-2 per experiment) were discarded.
SW1990 cells treated with Pan10, Pan10-FM, Pan10-3 or Pan10-4 were examined by inverted microscopy for a qualitative determination of the effect of the drug conjugates on the cell viability. […] The cytotoxic effect of the Pan10-drug conjugates in comparison with the toxicity of the free drugs was then quantified by the MTT (3-(4,5-dimethylthiazol-2-yl)-2,5,-diphenyltetrazolium bromide) cell-proliferation assay. Liu et al., J Neurochem, 69: 581-593, 1997; Berridge et al., Arch Biochem Biophys, 303: 474-482, 1993; Vistica et al., Cancer Res, 51: 2515-2520, 1991. SW1990 pancreatic carcinoma cells were seeded and allowed to attach in growth medium overnight. The cultures were then treated for either 3 or 12 h with increasing concentrations of free drugs or Pan10-drug conjugates.

[1] = Parrish et al. 2003; different cell line, exposure time and cytotoxicity assay; read-out: IC50, previously obtained values; cited from earlier work
HdFa cells = test: MTT cell proliferation assay on normal HdFa cells; format: cell-based, human; conditions: normal HdFa cells versus SW1990 cancer cells
Description: as §1, with “In order to obtain the IC50 values, data points from each set were fit to the sigmoidal dose-response curve defined by Equation 3 using Grafit5 (Leatherbarrow R. J. 2003. Grafit version 5.08, Erithieus Software Ltd, Staines, England).” left out

Row | Compound | IC50 (SW1990 cells; SW1990, 3 h) | IC50 (SW1990 cells; SW1990, 12 h) | IC50 [1] | IC50 on HdFa cells relative to IC50 against SW1990 cells (HdFa cells)
1 | NCCCn1c(C(=O)Nc2ccc3[nH]c(C(=O)N4CC(CCl)c5c4cc(O)c4ccccc54)cc3c2)cc2ccccc21 (stereo not shown) [compound 2, 3-[5-(1-(3-aminopropyl)indole-2-carbonyl)aminoindole-2-carbonyl]-1-(chloromethyl)-5-hydroxy-1,2-dihydro-3H-benz[e]indole] | 32100 ± 13100 pM | 4300 ± 200 pM | 30 pM | 
2 | CC(=O)c1ccc2[nH]c(C(=O)N3C[C@@H](CCl)c4c3cc(O)c3ccccc43)cc2c1 [compound 1, 3-(5-acetylindole-2-carbonyl)-1-(S)-(chloromethyl)-5-hydroxy-1,2-dihydro-3H-benz[e]indole] | 1400 ± 200 pM | 430 ± 170 pM | 2 pM | roughly the same IC50 values against both cells lines
